Results taken from paper PMC6522510 (Nature Communications, 2019).

How the values were obtained:
[1] = tested on: U937; experiment: cells; parameters: species or system AML cell lines (8); Secondary HTS, 10-point dose-response in triplicate, Cell Titer Glo viability, four-parameter fit EC50; details: Homo sapiens, U-937, 72 h, read-out: U937
[2] = tested on: ML-2; experiment: cells; parameters: species or system AML cell lines (8); Secondary HTS, 10-point dose-response in triplicate, Cell Titer Glo viability, four-parameter fit EC50; details: Homo sapiens, ML-2, 72 h, read-out: ML-2
[3] = tested on: MOLM-13; experiment: cells; parameters: species or system AML cell lines (8); Secondary HTS, 10-point dose-response in triplicate, Cell Titer Glo viability, four-parameter fit EC50; details: Homo sapiens, MOLM-13, 72 h, read-out: MOLM-13
[4] = tested on: MV4-11; experiment: cells; parameters: species or system AML cell lines (8); Secondary HTS, 10-point dose-response in triplicate, Cell Titer Glo viability, four-parameter fit EC50; details: Homo sapiens, MV4-11, 72 h, read-out: MV4-11
[5] = tested on: CHRF288-11; experiment: cells; parameters: species or system AML cell lines (8); Secondary HTS, 10-point dose-response in triplicate, Cell Titer Glo viability, four-parameter fit EC50; details: 72 h, read-out: CHRF288-11
[6] = tested on: CMK; experiment: cells; parameters: species or system AML cell lines (8); Secondary HTS, 10-point dose-response in triplicate, Cell Titer Glo viability, four-parameter fit EC50; details: Homo sapiens, CMK, 72 h, read-out: CMK
[7] = tested on: M07e; experiment: cells; parameters: species or system AML cell lines (8); Secondary HTS, 10-point dose-response in triplicate, Cell Titer Glo viability, four-parameter fit EC50; details: M-07e, 72 h, read-out: M07e
[8] = tested on: CMS; experiment: cells; parameters: species or system AML cell lines (8); Secondary HTS, 10-point dose-response in triplicate, Cell Titer Glo viability, four-parameter fit EC50; details: 72 h, read-out: CMS
[9] = tested on: U937; experiment: Secondary dose-response HTS, Cell Titer Glo; type: cell-based, human; details: Homo sapiens, U-937; secondary high-throughput screen; U937; read-out: average effective concentration, U937
[10] = tested on: MV4-11; experiment: Secondary dose-response HTS, Cell Titer Glo; type: cell-based, human; details: Homo sapiens; secondary high-throughput screen; MV4-11; read-out: average effective concentration, MV4-11
[11] = tested on: MOLM-13; experiment: Secondary dose-response HTS, Cell Titer Glo; type: cell-based, human; details: Homo sapiens; secondary high-throughput screen; MOLM-13; read-out: average effective concentration, MOLM-13

Structure (SMILES) | EC50 [1] [µM] | EC50 [3] [µM] | EC50 [4] [µM] | EC50 [9] [µM] | EC50 [10] [µM] | EC50 [11] [µM] | EC50 [2] [µM] | EC50 [5] [µM] | EC50 [6] [µM] | EC50 [7] [µM] | EC50 [8] [µM]
OC[C@H]1NC[C@H](O)[C@@H](O)[C@H]1O | > 10 | > 10 | > 10 |  |  |  | > 10 | > 10 | > 10 | > 10 | > 10
CC1=C(CC(=O)O)c2cc(F)ccc2/C1=C\c1ccc([S+](C)[O-])cc1 (centres unmarked) | > 10 | > 10 | > 10 |  |  |  | > 10 | > 10 | > 10 | > 10 | > 10
C=C1C(=O)O[C@@H](CCC)[C@@H]1C(=O)O (racemic) [SJ000784258, BUTYROLACTONE 3] | > 10 | 1.8 | > 10 |  |  |  | > 10 | > 10 | > 10 | > 10 | > 10
CCC1(c2ccc(N)cc2)CCC(=O)NC1=O (centres unmarked) [AMINOGLUTETHIMIDE] | > 10 | > 10 | > 10 |  |  |  | > 10 | > 10 | > 10 | > 10 | > 10
S=C(NCc1ccc2c(c1)OCO2)N1CCN(c2ncnc3c2oc2ccccc23)CC1 [AMUVATINIB] | > 10 | > 10 | > 10 |  |  |  | > 10 | > 10 | > 10 | > 10 | > 10
CC(C)(C#N)c1cc(Cn2cncn2)cc(C(C)(C)C#N)c1 [ANASTROZOLE] | > 10 | > 10 | > 10 |  |  |  | > 10 | > 10 | > 10 | > 10 | > 10
Cc1cc([C@@H](C)Nc2ccccc2C(=O)O)c2nc(N3CCOCC3)cc(=O)n2c1 [AZD6482] | > 10 | > 10 | > 10 |  |  |  | > 10 | > 10 | > 10 | > 10 | > 10
C[C@H]1C[C@H]2[C@@H]3CCC4=CC(=O)C=C[C@]4(C)[C@@]3(F)[C@@H](O)C[C@]2(C)[C@@]1(O)C(=O)CO [BETAMETHASONE] | > 10 | > 10 | > 10 |  |  |  | > 10 | > 10 | > 10 | > 10 | > 10
O=c1[nH]c(=O)n([C@H]2C[C@H](O)[C@@H](CO)O2)cc1/C=C/Br [BRIVUDINE] | > 10 | > 10 | > 10 |  |  |  | > 10 | > 10 | > 10 | > 10 | > 10
CCc1cc2c(cc1N1CCC(N3CCOCC3)CC1)C(C)(C)c1[nH]c3cc(C#N)ccc3c1C2=O [CH5424802] | > 10 | > 10 | > 10 |  |  |  | > 10 | > 10 | > 10 | > 10 | > 10
Nc1nc(OCc2ccccc2)c2nc[nH]c2n1 [Compound O6-BENZYLGUANINE] | > 10 | > 10 | > 10 |  |  |  | > 10 | > 10 | > 10 | > 10 | > 10
CC(C)(C)c1nc(-c2cccc(NS(=O)(=O)c3c(F)cccc3F)c2F)c(-c2ccnc(N)n2)s1 [DABRAFENIB] | > 10 | > 10 | > 10 |  |  |  | > 10 | > 10 | > 10 | > 10 | > 10
Cn1cc(C2=C(c3cn(C4CCN(Cc5ccccn5)CC4)c4ccccc34)C(=O)NC2=O)c2ccccc21 [ENZASTAURIN] | > 10 | > 10 | > 10 |  |  |  | > 10 | > 10 | > 10 | > 10 | > 10
CC(C(=O)O)c1ccc(-c2ccccc2)c(F)c1 (centres unmarked) [FLURBIPROFEN] | > 10 | > 10 | > 10 |  |  |  | > 10 | > 10 | > 10 | > 10 | > 10
CC(C)n1c(/C=C/C(O)CC(O)CC(=O)O)c(-c2ccc(F)cc2)c2ccccc21 (centres unmarked) [FLUVASTATIN] | > 10 | > 10 | > 10 |  |  |  | > 10 | > 10 | > 10 | > 10 | > 10
Cc1c(Cn2c(C)nc3c(C(=O)O)cc(N4CCOCC4)cc32)cccc1C(F)(F)F [GSK-2636771] | > 10 | > 10 | > 10 |  |  |  | > 10 | > 10 | > 10 | > 10 | > 10
CCN(CCO)CCCC(C)Nc1ccnc2cc(Cl)ccc12 (centres unmarked) [HYDROXYCHLOROQUINE] | > 10 | > 10 | > 10 |  |  |  | > 10 | > 10 | > 10 | > 10 | > 10
CC[C@H](Nc1ncnc2[nH]cnc12)c1nc2cccc(F)c2c(=O)n1-c1ccccc1 [IDELALISIB] | > 10 | > 10 | > 10 |  |  |  | > 10 | > 10 | > 10 | > 10 | > 10

Second part, led by results:

EC50 [1] [µM] | EC50 [3] [µM] | EC50 [4] [µM] | EC50 [9] [µM] | EC50 [10] [µM] | EC50 [11] [µM] | Structure (SMILES) | EC50 [2] [µM] | EC50 [5] [µM] | EC50 [6] [µM] | EC50 [7] [µM] | EC50 [8] [µM]
0.134 | 0.0727 | 0.046 |  |  |  | COc1ccc(C[C@H](NC(=O)[C@H](C)NC(=O)CN2CCOCC2)C(=O)N[C@@H](Cc2ccccc2)C(=O)C2(C)CO2)cc1 (stereo in doubt) [SJ000834147, ONX-0914] | 0.0426 | 0.169 | 0.23 | 0.0789 | 0.11
8.2 | 5.9 | > 10 |  |  |  | C=C1CCCC2(C)C[C@H]3OC(=O)C(=C)[C@H]3CC12 (stereo in doubt) [SJ000834159, ISOHELENIN] | 6.6 | 6.7 | 5.2 | > 10 | 5.4
> 10 | > 10 | > 10 |  |  |  | O[C@@H]1CO[C@H]2[C@@H]1OC[C@@H]2O [ISOSORBIDE] | > 10 | > 10 | > 10 | > 10 | > 10
> 10 | > 10 | > 10 |  |  |  | CS(=O)(=O)CCNCc1ccc(-c2ccc3ncnc(Nc4ccc(OCc5cccc(F)c5)c(Cl)c4)c3c2)o1 [LAPATINIB] | > 10 | > 10 | > 10 | > 10 | > 10
> 10 | > 10 | > 10 |  |  |  | Nc1nc(OCc2cc(Br)cs2)c2[nH]cnc2n1 [LOMEGUATRIB] | > 10 | > 10 | > 10 | > 10 | > 10
 | > 10 |  | > 10 | > 10 |  | Cc1ccc(NC(=O)c2ccc(CN3CCN(C)CC3)cc2)cc1Nc1nc(-c2cccnc2)cs1 [MASITINIB] | > 10 | > 10 | > 10 | > 10 | > 10
> 10 |  |  |  | > 10 | 4.5 | CCc1nc(N)nc(N)c1-c1ccc(Cl)cc1 [PYRIMETHAMINE] | > 10 | > 10 | > 10 | > 10 | > 10
> 10 |  |  |  | 0.34 | 1.5 | CNC(=O)c1cc(Oc2ccc(NC(=O)Nc3ccc(Cl)c(C(F)(F)F)c3)c(F)c2)ccn1 [REGORAFENIB] | > 10 | > 10 | > 10 | > 10 | > 10
> 10 |  |  |  | > 10 | 8.9 | Oc1ccc(/C=C/c2cc(O)cc(O)c2)cc1 [RESVERATROL] | > 10 | > 10 | > 10 | > 10 | > 10
> 10 |  | > 10 |  |  | 0.077 | CCCC(CCC)C(=O)O [VALPROATE SODIUM] | > 10 | > 10 | > 10 | > 10 | > 10
